In PubChem BioAssay (NCI):
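Grown in 96-well plates, cells were treated for 48 hours with each compound at five concentrations. Insufficient inhibition: endpoint recorded as highest concentration tested. The concentration for full growth arrest is given as TGI.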

Experiments:
Assay in all cases: inhibition of tumour cell growth, NCI panel, 48 h
[1] = tested on: 786-0 renal
[2] = tested on: A498 renal
[3] = tested on: A549 NSCLC
[4] = tested on: ACHN renal
[5] = tested on: CAKI-1 renal
[6] = tested on: CCRF-CEM leukemia
[7] = tested on: COLO 205 colon
[8] = tested on: DMS 114 small cell lung
[9] = tested on: DMS 273 small cell lung
[10] = tested on: EKVX NSCLC
[11] = tested on: HCC-2998 colon
[12] = tested on: HCT-116 colon
[13] = tested on: HCT-15 colon
[14] = tested on: HOP-62 NSCLC
[15] = tested on: HT29 colon
[16] = tested on: IGROV1 ovarian
[17] = tested on: K-562 leukemia
[18] = tested on: KM12 colon
[19] = tested on: KM20L2 colon
[20] = tested on: LOX IMVI melanoma
[21] = tested on: LXFL 529 NSCLC
[22] = tested on: M14 melanoma
[23] = tested on: M19-MEL melanoma
[24] = tested on: MALME-3M melanoma
[25] = tested on: MOLT-4 leukemia
[26] = tested on: NCI-H226 lung
[27] = tested on: NCI-H23 lung
[28] = tested on: NCI-H460 lung
[29] = tested on: NCI-H522 lung
[30] = tested on: OVCAR-3 ovarian
[31] = tested on: OVCAR-4 ovarian
[32] = tested on: OVCAR-5 ovarian
[33] = tested on: OVCAR-8 ovarian
[34] = tested on: RPMI-8226 leukemia
[35] = tested on: RXF 393 renal
[36] = tested on: SF-268 CNS
[37] = tested on: SF-295 CNS
[38] = tested on: SF-539 CNS
[39] = tested on: SK-MEL-2 melanoma
[40] = tested on: SK-MEL-28 melanoma
[41] = tested on: SK-MEL-5 melanoma
[42] = tested on: SK-OV-3 ovarian
[43] = tested on: SN12C renal
[44] = tested on: SNB-19 CNS
[45] = tested on: SNB-75 CNS
[46] = tested on: SNB-78 CNS
[47] = tested on: SW-620 colon
[48] = tested on: TK-10 renal
[49] = tested on: U251 CNS
[50] = tested on: UACC-257 melanoma
[51] = tested on: UACC-62 melanoma
[52] = tested on: UO-31 renal
[53] = tested on: XF 498 CNS
[54] = tested on: DLD-1 colon
[55] = tested on: HL-60(TB) leukemia
[56] = tested on: HOP-92 NSCLC
[57] = tested on: RXF-631 renal
[58] = tested on: SR leukemia
[59] = tested on: HOP-18 NSCLC

## C=C1C(=O)O[C@H](c2ccoc2)C[C@@H]1[C@@]1(C)CCCC2(C)C(=O)OCC21 (some centres undefined)
[1]
  TGI: > 100 µM
[2]
  TGI: > 100 µM
[3]
  TGI: > 100 µM
[4]
  TGI: > 100 µM
[5]
  TGI: > 100 µM
[6]
  TGI: > 100 µM
[7]
  TGI: > 100 µM
[8]
  TGI: > 100 µM
[9]
  TGI: > 100 µM
[10]
  TGI: > 100 µM
[11]
  TGI: > 100 µM
[12]
  TGI: > 100 µM
[13]
  TGI: > 100 µM
[14]
  TGI: > 100 µM
[15]
  TGI: > 100 µM
[16]
  TGI: > 100 µM
[17]
  TGI: > 100 µM
[18]
  TGI: > 100 µM
[19]
  TGI: > 100 µM
[20]
  TGI: > 100 µM
[21]
  TGI: > 100 µM
[22]
  TGI: > 100 µM
[23]
  TGI: > 100 µM
[24]
  TGI: > 100 µM
[25]
  TGI: > 100 µM
[26]
  TGI: > 100 µM
[27]
  TGI: > 100 µM
[28]
  TGI: > 100 µM
[29]
  TGI: > 100 µM
[30]
  TGI: > 100 µM
[31]
  TGI: > 100 µM
[32]
  TGI: > 100 µM
[33]
  TGI: > 100 µM
[34]
  TGI: > 100 µM
[35]
  TGI: > 100 µM
[36]
  TGI: > 100 µM
[37]
  TGI: > 100 µM
[38]
  TGI: > 100 µM
[39]
  TGI: > 100 µM
[40]
  TGI: > 100 µM
[41]
  TGI: > 100 µM
[42]
  TGI: > 100 µM
[43]
  TGI: > 100 µM
[44]
  TGI: > 100 µM
[45]
  TGI: > 100 µM
[46]
  TGI: > 100 µM
[47]
  TGI: > 100 µM
[48]
  TGI: > 100 µM
[49]
  TGI: > 100 µM
[50]
  TGI: > 100 µM
[51]
  TGI: > 100 µM
[52]
  TGI: > 100 µM
[53]
  TGI: > 100 µM

## CC1OC(n2cc(C(F)(F)F)c(=O)[nH]c2=O)C=CC1=O (centres undefined)
[1]
  TGI: 33.1 µM
[3]
  TGI: > 100 µM
[4]
  TGI: 31.4 µM
[7]
  TGI: 35.2 µM
[54]
  TGI: 38.2 µM
[11]
  TGI: 32.3 µM
[12]
  TGI: 29.7 µM
[13]
  TGI: 47 µM
[55]
  TGI: 41.2 µM
[14]
  TGI: 52.3 µM
[56]
  TGI: 41 µM
[15]
  TGI: 54.6 µM
[16]
  TGI: 39.9 µM
[17]
  TGI: > 100 µM
[18]
  TGI: 38.1 µM
[19]
  TGI: 48.1 µM
[20]
  TGI: 33 µM
[21]
  TGI: 31.6 µM
[22]
  TGI: 59.8 µM
[23]
  TGI: 43.3 µM
[24]
  TGI: 34.2 µM
[25]
  TGI: 57.2 µM
[26]
  TGI: 66.1 µM
[27]
  TGI: 33 µM
[28]
  TGI: 48.6 µM
[29]
  TGI: 32.5 µM
[30]
  TGI: 31.9 µM
[31]
  TGI: 26.8 µM
[32]
  TGI: 33.5 µM
[33]
  TGI: 80 µM
[34]
  TGI: 37.4 µM
[57]
  TGI: 25.3 µM
[36]
  TGI: > 100 µM
[37]
  TGI: 81.5 µM
[38]
  TGI: 35.2 µM
[39]
  TGI: 34.6 µM
[40]
  TGI: 38.2 µM
[42]
  TGI: 44.9 µM
[43]
  TGI: 57.8 µM
[44]
  TGI: 30.6 µM
[45]
  TGI: 32.8 µM
[46]
  TGI: 31.5 µM
[58]
  TGI: 33.3 µM
[47]
  TGI: 35.9 µM
[48]
  TGI: 35.3 µM
[50]
  TGI: 38.8 µM
[51]
  TGI: 47.5 µM
[52]
  TGI: 33 µM
[53]
  TGI: 30.3 µM

## COc1ccc2c(c1)CCc1c-2[nH]c2cc3c(cc2c1=O)OCO3
[1]
  TGI: > 100 µM
[3]
  TGI: > 100 µM
[4]
  TGI: > 100 µM
[5]
  TGI: > 100 µM
[6]
  TGI: > 100 µM
[7]
  TGI: > 100 µM
[54]
  TGI: > 100 µM
[9]
  TGI: > 100 µM
[10]
  TGI: > 100 µM
[11]
  TGI: > 100 µM
[13]
  TGI: > 100 µM
[55]
  TGI: > 100 µM
[59]
  TGI: > 100 µM
[14]
  TGI: > 100 µM
[56]
  TGI: > 100 µM
[15]
  TGI: > 100 µM
[16]
  TGI: > 100 µM
[17]
  TGI: > 100 µM
[18]
  TGI: > 100 µM
[20]
  TGI: > 100 µM
[21]
  TGI: > 100 µM
[22]
  TGI: > 100 µM
[23]
  TGI: > 100 µM
[24]
  TGI: > 100 µM
[25]
  TGI: > 100 µM
[27]
  TGI: > 100 µM
[28]
  TGI: > 100 µM
[29]
  TGI: > 100 µM
[31]
  TGI: > 100 µM
[33]
  TGI: > 100 µM
[34]
  TGI: > 100 µM
[38]
  TGI: > 100 µM
[39]
  TGI: > 100 µM
[40]
  TGI: > 100 µM
[42]
  TGI: > 100 µM
[43]
  TGI: > 100 µM
[44]
  TGI: > 100 µM
[45]
  TGI: > 100 µM
[46]
  TGI: > 100 µM
[58]
  TGI: > 100 µM
[47]
  TGI: > 100 µM
[48]
  TGI: > 100 µM
[49]
  TGI: > 100 µM
[51]
  TGI: > 100 µM
[52]
  TGI: > 100 µM
[53]
  TGI: > 100 µM

## COc1ccc(CN2C(=O)[C@@H]3Cc4c(OC)c(C)c(OC)c(OC)c4[C@H](/C2=C\c2cc(OC)c(OC)c(C)c2OC)N3C(=O)OC(C)C)cc1
[1]
  TGI: > 100 µM
[2]
  TGI: > 100 µM
[3]
  TGI: > 100 µM
[4]
  TGI: > 100 µM
[5]
  TGI: > 100 µM
[6]
  TGI: > 100 µM
[7]
  TGI: > 100 µM
[54]
  TGI: > 100 µM
[8]
  TGI: > 100 µM
[9]
  TGI: > 100 µM
[10]
  TGI: > 100 µM
[11]
  TGI: > 100 µM
[12]
  TGI: > 100 µM
[55]
  TGI: > 100 µM
[59]
  TGI: > 100 µM
[14]
  TGI: > 100 µM
[56]
  TGI: > 100 µM
[15]
  TGI: > 100 µM
[16]
  TGI: > 100 µM
[17]
  TGI: > 100 µM
[18]
  TGI: > 100 µM
[19]
  TGI: > 100 µM
[20]
  TGI: > 100 µM
[21]
  TGI: > 100 µM
[22]
  TGI: > 100 µM
[23]
  TGI: > 100 µM
[24]
  TGI: > 100 µM
[25]
  TGI: > 100 µM
[26]
  TGI: 34.1 µM
[27]
  TGI: > 100 µM
[28]
  TGI: > 100 µM
[29]
  TGI: > 100 µM
[30]
  TGI: > 100 µM
[31]
  TGI: > 100 µM
[32]
  TGI: > 100 µM
[33]
  TGI: > 100 µM
[34]
  TGI: > 100 µM
[35]
  TGI: > 100 µM
[57]
  TGI: > 100 µM
[36]
  TGI: > 100 µM
[37]
  TGI: > 100 µM
[38]
  TGI: > 100 µM
[39]
  TGI: > 100 µM
[40]
  TGI: > 100 µM
[41]
  TGI: > 100 µM
[42]
  TGI: > 100 µM
[43]
  TGI: > 100 µM
[44]
  TGI: > 100 µM
[45]
  TGI: > 100 µM
[58]
  TGI: > 100 µM
[47]
  TGI: > 100 µM
[48]
  TGI: > 100 µM
[49]
  TGI: > 100 µM
[50]
  TGI: > 100 µM
[51]
  TGI: > 100 µM
[52]
  TGI: > 100 µM
